For 22 compounds, IC50 results are on record in US9868737B2, “Pyridino[1,2-A]pyrimidone analogue used as MTOR/P13K inhibitor” (CISEN PHARMACEUTICAL CO., LTD., priority 2014, dated 2018).

For assay [1], the system named is MCF-7 cells. Put plainly: In vitro test of cell activity (MCF-7 cells, insulin stimulation, ELISA-One fluorescence). Format: cell-based. The conditions noted are these: Homo sapiens, MCF7, MCF-7 cells; read-out: IC50 p-AKT. The gist of the method:
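Fluorescence ELISA-One read-out on cell lysates, antibody-captured 1 h at room temperature. Before lysis, MCF-7 cells (2.5×10^4/well) were pretreated 2 h with compound in serum-free medium, single dose for screening or a dilution series for IC50, then stimulated 30 min with insulin ([…] final).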

For assay [2], the target named is T1, PI3K (p110α) kinase (Homo sapiens, UniProt P42336).
T1 construct: made in house
T1 sequence (P42336 whole entry): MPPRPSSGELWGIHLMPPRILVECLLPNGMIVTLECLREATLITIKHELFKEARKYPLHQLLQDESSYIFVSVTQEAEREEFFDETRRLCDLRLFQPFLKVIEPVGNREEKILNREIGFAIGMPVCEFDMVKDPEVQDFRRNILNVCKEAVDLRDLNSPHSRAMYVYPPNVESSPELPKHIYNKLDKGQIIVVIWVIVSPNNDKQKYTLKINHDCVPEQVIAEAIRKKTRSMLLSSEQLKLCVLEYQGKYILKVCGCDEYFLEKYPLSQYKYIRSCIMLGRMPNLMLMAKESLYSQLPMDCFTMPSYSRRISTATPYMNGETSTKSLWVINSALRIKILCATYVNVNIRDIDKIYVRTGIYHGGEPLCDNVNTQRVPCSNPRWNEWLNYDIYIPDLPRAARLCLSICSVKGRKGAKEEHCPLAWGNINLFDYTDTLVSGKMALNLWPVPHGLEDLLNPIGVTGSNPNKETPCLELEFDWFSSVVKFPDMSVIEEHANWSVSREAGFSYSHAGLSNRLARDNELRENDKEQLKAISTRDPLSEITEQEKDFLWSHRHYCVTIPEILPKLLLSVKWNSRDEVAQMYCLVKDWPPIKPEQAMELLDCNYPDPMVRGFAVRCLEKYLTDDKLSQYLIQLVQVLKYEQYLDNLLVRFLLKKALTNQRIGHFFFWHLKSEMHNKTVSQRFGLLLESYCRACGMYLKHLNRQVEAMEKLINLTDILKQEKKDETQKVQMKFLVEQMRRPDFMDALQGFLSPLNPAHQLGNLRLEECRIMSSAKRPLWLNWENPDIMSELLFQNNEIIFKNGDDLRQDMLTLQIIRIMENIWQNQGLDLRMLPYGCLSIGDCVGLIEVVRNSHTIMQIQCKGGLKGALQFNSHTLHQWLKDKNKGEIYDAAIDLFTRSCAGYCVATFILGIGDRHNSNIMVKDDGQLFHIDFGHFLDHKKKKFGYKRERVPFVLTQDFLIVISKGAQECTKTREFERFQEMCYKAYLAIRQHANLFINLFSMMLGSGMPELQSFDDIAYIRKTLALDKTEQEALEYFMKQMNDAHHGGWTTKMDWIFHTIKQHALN
Put plainly: PI3K (p110α) kinase assay (PI3K HTRF Assay). Format: biochemical. The conditions noted are these: in vitro enzyme activity assay, 10 μM PIP2, read-out: PI3K (p110α) enzyme activity_IC50. An excerpt: Conclusion: The compounds of the present invention have significant inhibitory effect on mTOR/PI3K. Example In Vitro Enzyme Activity Assay 1. The experimental procedures and methods of PI3K (p110α) kinase assay: 1) Experimental Objective
The objective was to evaluate the inhibitory effect of the subject samples on PI3K (p110α) kinase activity at molecular level.
PerkinElmer Envision 2104 Multilabel Reader.
PI 3-Kinase HTRF Assay (384 wells) was purchased from Upstate (Millipore) company: PI3K (p110α) kinase was made in our lab.
c) Experimental procedures
Each solution was prepared according to the instructions provided in the Kinase PI 3-Kinase HTRF Assay. The kinase reaction was carried out in white 384-well plates (Proxiplate-384 plus), 0.5 μl of DMSO (the concentration was consistent with the highest concentration of DMSO for the test compounds) was added to each of the two control wells with and without enzyme, and then 0.5 μl of a series of different concentrations of the test compounds was added to each well to be tested. The kinase reaction liquid (10 μM substrate PIP2, 0.5 ng PI3K (p110α)) was added to the control well containing enzyme and the test wells, while only working reaction liquid (10 μM substrate PIP2) was added to the control well without enzyme, and finally, 5 μM ATP working reaction liquid was added to activate the reaction. After the reaction was carried out at room temperature for 30 min, the stop solution was added to each well to terminate the kinase reaction. After the mixture was fully mixed, the detection liquid was added to each well and fully mixed. The plate was sealed with Parafilm and placed in the dark. After incubated overnight, the mixture was detected.
The IC50 value was calculated through the GraphPad software after plotting the relative inhibitory rate versus concentration.

Regarding `COCCOc1cnc2ccc(-c3cnc(OC)c(NS(=O)(=O)c4ccc(C)cc4C)c3)cn2c1=O` [compound 244], the IC50 in assay [1] was 50 to 100 nM; in assay [2] it was no more than 1 nM.

Regarding `COCCOc1cnc2ccc(-c3cnc(OC)c(NS(=O)(=O)c4cccc(C)c4)c3)cn2c1=O` [compound 247], the IC50 in assay [1] was 100 to 250 nM; in assay [2], no more than 1 nM. On the same counts, the results for `COc1ncc(-c2ccc3ncc(OCC4COC4)c(=O)n3c2)cc1NS(=O)(=O)c1ccccc1Cl` [compound 257] are no more than 50 nM and no more than 1 nM. For `COCCOc1cnc2ccc(-c3cnc(OC)c(NS(=O)(=O)c4ccc(C)cc4Cl)c3)cn2c1=O` [compound 275], in that order: no more than 50 nM and no more than 1 nM. On the same counts, the results for `COc1ncc(-c2ccc3ncc(OCCOCC(F)(F)F)c(=O)n3c2)cc1NS(=O)(=O)c1ccc(F)cc1Cl` [compound 242] are 100 to 250 nM and no more than 1 nM. For the compound `COc1ncc(-c2ccc3ncc(OCC4COC4)c(=O)n3c2)cc1NS(=O)(=O)c1ccc(C)cc1Cl` [compound 277], the IC50 in assay [1] is no more than 50 nM; in assay [2] it was no more than 1 nM. On to `COCCOc1cnc2ccc(-c3cnc(OC)c(NS(=O)(=O)c4ccc(Cl)cc4F)c3)cn2c1=O` [compound 271], for which the IC50 in assay [1] was 50 to 100 nM; in assay [2], no more than 1 nM. Consider `COCCOc1cnc2ccc(-c3cnc(OC)c(NS(=O)(=O)c4cc(C)c(Cl)cc4F)c3)cn2c1=O` [compound 269], for which, in assay [2], the IC50 was in the range of 1 to 10 nM.

Regarding `COc1ncc(-c2ccc3ncc(OCC4COC4)c(=O)n3c2)cc1NS(=O)(=O)c1ccc(C)cc1C` [compound 251], the results for the IC50 in assay [1] and in assay [2] were 100 to 250 nM and no more than 1 nM, respectively. Take `COc1ncc(-c2ccc3ncc(OCC4COC4)c(=O)n3c2)cc1NS(=O)(=O)c1c(Cl)cccc1Cl` [compound 249]: the results for the IC50 in assay [1] and in assay [2] were no more than 50 nM and no more than 1 nM, respectively. As for `COCCOc1cnc2ccc(-c3cnc(OC)c(NS(=O)(=O)c4cc(C)c(Cl)cc4Cl)c3)cn2c1=O` [compound 258], the IC50 in assay [2] lay within 1 to 10 nM.

For `COCCOc1cnc2ccc(-c3cnc(OC)c(NS(=O)(=O)c4ccccc4Cl)c3)cn2c1=O` [compound 253], the figures for the IC50 in assay [1] and in assay [2] were no more than 50 nM and no more than 1 nM, respectively. On the same counts, the results for `COc1ncc(-c2ccc3ncc(OCC4COC4)c(=O)n3c2)cc1NS(=O)(=O)c1ccc(F)c(F)c1` [compound 250] are 50 to 100 nM and no more than 1 nM. On the same counts, the results for `COCCOc1cnc2ccc(-c3cnc(OC)c(NS(=O)(=O)c4ccc(F)c(F)c4)c3)cn2c1=O` [compound 246] are 100 to 250 nM and no more than 1 nM.

On to `COCCOc1cnc2ccc(-c3cnc(OC)c(NS(=O)(=O)c4cccc(Cl)c4C)c3)cn2c1=O` [compound 261], for which the IC50 was 50 to 100 nM in assay [1] and no more than 1 nM in assay [2]. Regarding `COCCOc1cnc2ccc(-c3cnc(OC)c(NS(=O)(=O)n4nc(C)cc4C)c3)cn2c1=O` [compound 283], in assay [2], the IC50 was 1 to 10 nM.

`COCCOc1cnc2ccc(-c3cnc(OC)c(NS(=O)(=O)c4cc(C)ccc4C)c3)cn2c1=O` [compound 262]: the values for the IC50 in assay [1] and in assay [2] were 50 to 100 nM and no more than 1 nM, respectively. Regarding `COc1ncc(-c2ccc3ncc(OCC4COC4)c(=O)n3c2)cc1NS(=O)(=O)c1ccc(F)cc1C` [compound 255], the IC50 was 100 to 250 nM in assay [1] and no more than 1 nM in assay [2].

Take `COc1ncc(-c2ccc3ncc(OCCCF)c(=O)n3c2)cc1NS(=O)(=O)c1ccc(F)cc1Cl` [compound 243]: the IC50 was no more than 50 nM in assay [1] and no more than 1 nM in assay [2]. As to `COCCOc1cnc2ccc(-c3cnc(OC)c(NS(=O)(=O)c4cnc(C)cc4C)c3)cn2c1=O` [compound 282], the IC50 in assay [2] was no more than 1 nM. Still for that read-out and setting: to `COCCOc1cnc2ccc(-c3cnc(OC)c(NS(=O)(=O)c4ccc(F)cc4C4CC4)c3)cn2c1=O` [compound 284] belongs 1 to 10 nM. Consider `COc1nnc(-c2ccc3ncc(Cl)c(=O)n3c2)cc1NS(=O)(=O)c1ccc(F)cc1F` [compound 133], for which the IC50 in assay [1] was greater than 250 nM.
